assay: Test as antiagglomerant (agglomerate inhibition) in stirred steel autoclave; conditions: 5 000 ppm additive based on aqueous phase; water and white spirit 1:2; gas 1, 90 bar; 2° C. for 25 hours
Protocol: To investigate the inhibiting action of the compounds according to the invention, a stirred steel autoclave having temperature control, pressure and torque sensor having an internal volume of 450 ml was used. For investigations of kinetic inhibition, the autoclave was filled with distilled water and gas in a volume ratio of 20:80, and, for investigations of agglomerate inhibition, condensate was additionally added. Finally, natural gas was injected at different pressures.
Starting from a starting temperature of 17.5° C., the autoclave was cooled to 2° C. within 2 h, then stirred at 2° C. for 18 h and heated back up to 17.5° C. within 2 h. An initial pressure decrease corresponding to the thermal compression of the gas is observed. When the formation of gas hydrate nuclei occurs during the supercooling time, the pressure measured falls, and an increase in the torque measured and a slight increase in temperature can be observed. Without inhibitor, further growth and increasing agglomeration of the hydrate nuclei lead rapidly to a further increase in the torque. When the mixture is heated, the gas hydrates decompose, so that the starting state of the experimental series is attained.
On the other hand, the torque measured in the autoclave serves as a parameter for the agglomeration of the hydrate crystals. The pressure drop measured (Δp) allows a direct conclusion on the amount of hydrate crystals formed.
Gas 1: 79.3% methane, 10.8% ethane, 4.8% propane, 1.9% butane, 1.4% carbon dioxide, 1.8% nitrogen. Supercooling below the equilibrium temperture of hydrate formation at 50 bar: 12° C.
In order to test the effectiveness as agglomerate inhibitors, the test autoclave used above was initially charged with water and white spirit (20% of the volume in a ratio of 1:2) and, based on the aqueous phase, 5 000 ppm of the particular additive were added. At an autoclave pressure of 90 bar using gas 1 and a stirrer speed of 5 000 rpm, the temperature was cooled from initially 17.5° C. within 2 hours to 2° C., then the mixture was stirred at 2° C. for 25 hours and heated again. The pressure drop caused by hydrate formation and the resulting torque at the stirrer, which is a measure of the agglomeration of the gas hydrates, were measured.

| Structure (SMILES) | Pressure drop Δ p [bar] | Temperature rise Δ T [K] | Torque Mmax [Ncm] |
| --- | --- | --- | --- |
| CCCCC(CC)COC(=O)COCC[N+](C)(CCOCC(=O)OCC(CC)CCCC)C1CCCC1.COS(=O)(=O)[O-] (stereo not drawn) [Example 46] | 15.1 | 0.3 | 0.3 |
| CCCCC(CC)COC(=O)COCC[N+](C)(CCOCC(=O)OCC(CC)CCCC)C1CCCCC1.COS(=O)(=O)[O-] (stereo not drawn) [Example 48] | 15.3 | 0.7 | 0.4 |
| CCCCC(CC)COC(=O)COCC[N+](C)(CCCC)CCOCC(=O)OCC(CC)CCCC.COS(=O)(=O)[O-] (stereo not drawn) [Example 50] | 10.1 | 0.1 | 0.2 |
